From PubChem BioAssay (NCI) come the findings set out here.

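Grown in 96-well plates, cells were treated for 48 hours with each compound at five concentrations. Insufficient inhibition: endpoint recorded as highest concentration tested. GI50: concentration for 50% inhibition of growth. The concentration for full growth arrest is given as TGI.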

Among the test systems are ACHN renal; A498 renal; SK-MEL-28 melanoma; A549 NSCLC; SR leukemia; SF-295 CNS; UACC-257 melanoma; COLO 205 colon; UACC-62 melanoma.
Assay in all cases: NCI anticancer screen, dose series, 48 h

`CC(=O)OC1COC(N2C(=O)C(=O)c3ccccc32)C(OC(C)=O)C1OC(C)=O` (stereo not drawn): the TGI in the assay with ACHN renal, in the assay with A498 renal, in the assay on SK-MEL-28 melanoma, with A549 NSCLC, with SR leukemia and with SF-295 CNS was above 100 µM each time. In addition, the TGI with UACC-257 melanoma, with COLO 205 colon and in the assay on UACC-62 melanoma was above 100 µM each time.

As to `CSCSCC(CO)NC(=O)/C=C/c1c(C)[nH]c(=O)[nH]c1=O` (stereo not drawn), the TGI with ACHN renal, with A498 renal, with SK-MEL-28 melanoma, in the assay on A549 NSCLC, in the assay on SR leukemia and in the assay on SF-295 CNS was above 100 µM each time. Moreover, the TGI in the assay on UACC-257 melanoma and in the assay with UACC-62 melanoma was above 100 µM each time.

In the case of `O=C(CC(C(=O)c1ccsc1)c1cccs1)c1cccs1` (stereo not drawn), the TGI with ACHN renal, with A498 renal, in the assay on SK-MEL-28 melanoma, in the assay with A549 NSCLC, in the assay on SR leukemia and in the assay on SF-295 CNS was above 100 µM throughout. The TGI with UACC-257 melanoma, with COLO 205 colon and in the assay with UACC-62 melanoma was above 100 µM in each case.

Regarding `C#Cc1c(C)c(/C=C/C(C)=C\C(=O)OC)n(C)c1C`, the TGI with ACHN renal, with A498 renal, in the assay with A549 NSCLC, in the assay on SF-295 CNS, with UACC-257 melanoma and in the assay with COLO 205 colon was above 100 µM throughout. In addition, the TGI in the assay on UACC-62 melanoma was above 100 µM.

As for `COc1ccccc1NC(=O)c1sc2ncn(CCOc3ccccc3)c(=O)c2c1C`, the GI50 was 6.01 µM in the assay with ACHN renal; 3.36 µM in the assay on A549 NSCLC; 0.856 µM in the assay on SR leukemia; 1.69 µM in the assay on SF-295 CNS; 1.49 µM in the assay with UACC-257 melanoma; 2.88 µM with COLO 205 colon. Moreover, the GI50 in the assay with UACC-62 melanoma was 2.04 µM. Further, the TGI with ACHN renal was above 50 µM; in the assay on A549 NSCLC it was above 50 µM; in the assay on SR leukemia, 6.87 µM; with SF-295 CNS it was above 50 µM; in the assay on UACC-257 melanoma it was above 50 µM; in the assay with COLO 205 colon, above 50 µM. In the assay on UACC-62 melanoma, this molecule registered a TGI above 50 µM.

On to `Nc1nc(N)c(CCCCc2ccc([N+](=O)[O-])cc2)c(N)n1`, for which the TGI with ACHN renal, in the assay on A498 renal, in the assay with A549 NSCLC, in the assay on SR leukemia, with SF-295 CNS and in the assay on UACC-257 melanoma was above 100 µM in each case. Moreover, the TGI in the assay on COLO 205 colon and in the assay with UACC-62 melanoma was above 100 µM each time.

For the molecule `N#Cc1sc2nc3c(c(-c4ccccc4)c2c1N)CCCC3`, the TGI in the assay on ACHN renal was above 100 µM; with A498 renal it was above 100 µM; in the assay with SK-MEL-28 melanoma, above 100 µM; with A549 NSCLC, above 100 µM; in the assay on SR leukemia, above 100 µM; in the assay with SF-295 CNS it was 43.6 µM. The TGI in the assay with UACC-257 melanoma and in the assay on UACC-62 melanoma was above 100 µM in each case.

Take `CCOC(=O)C(Oc1ccc(OC)c2c1C(=O)CCC2)c1ccccc1` (stereo not drawn): the TGI in the assay on ACHN renal, with A498 renal, with SK-MEL-28 melanoma, in the assay with A549 NSCLC, in the assay with SF-295 CNS and in the assay with UACC-257 melanoma was above 100 µM throughout. Besides, the TGI in the assay on COLO 205 colon and in the assay with UACC-62 melanoma was above 100 µM each time.

`O=C(CC1(O)C(=O)Nc2ccc(Cl)cc21)c1ccc(C(=O)NCC2CCC3(CC2)OOC2(CCCCC2)OO3)cc1` (stereo not drawn): the GI50 in the assay with A498 renal is 10.2 µM; in the assay with SK-MEL-28 melanoma, 3.33 µM; with SF-295 CNS it was 2.15 µM; with UACC-257 melanoma it was 6.48 µM; in the assay with COLO 205 colon, 3.09 µM; in the assay with UACC-62 melanoma, 5.05 µM. For the same molecule, the TGI came to 28 µM in the assay on A498 renal; 17.9 µM in the assay on SK-MEL-28 melanoma; 9.31 µM in the assay with SF-295 CNS; 24.2 µM in the assay with UACC-257 melanoma; 12.3 µM in the assay on COLO 205 colon; 27.6 µM in the assay on UACC-62 melanoma.

Consider `NN=C1/C(=C\c2ccccc2)CCC/C1=C/c1ccccc1`, for which the TGI with ACHN renal is above 100 µM; in the assay on A498 renal it was 95.8 µM; in the assay on SK-MEL-28 melanoma, above 100 µM; in the assay on A549 NSCLC, above 100 µM; in the assay on SF-295 CNS, above 100 µM; in the assay with UACC-257 melanoma it was above 100 µM. Besides, the results for the TGI with COLO 205 colon and in the assay on UACC-62 melanoma were 71.4 µM and above 100 µM, respectively.

Consider `O=C1N(c2ccc(Cl)cc2)C(=O)C2(SC=NN2Cc2ccccc2)N1c1ccc(Cl)cc1` (stereo not drawn), for which the TGI in the assay with ACHN renal, with A498 renal, in the assay with SK-MEL-28 melanoma, in the assay on A549 NSCLC, with SR leukemia and with UACC-257 melanoma was above 100 µM throughout. Moreover, the TGI with UACC-62 melanoma was above 100 µM.

As to `COC(=O)CC(=O)OC1C[C@@H]2CCC3C(C)(C)CCC[C@]3(C)C23CC[C@@]1(C)C3` (stereo partly drawn), the TGI was 31.7 µM with ACHN renal; 38.8 µM in the assay on SK-MEL-28 melanoma; 65.1 µM in the assay with A549 NSCLC; above 100 µM in the assay on SR leukemia; 34.5 µM with SF-295 CNS; 35.3 µM in the assay with UACC-257 melanoma. Further, the TGI is 33.9 µM with COLO 205 colon and 30.7 µM in the assay with UACC-62 melanoma.

For `Cc1cc2c3ccccc3n3c2c2c1OC1(C)CCC(C2C1)C3(C)C` (stereo not drawn), the TGI with ACHN renal, in the assay on SK-MEL-28 melanoma, with A549 NSCLC, in the assay with SR leukemia, in the assay on COLO 205 colon and in the assay with UACC-62 melanoma was above 25 µM in each case.

For `COC(OC)c1cccc2c1C(=O)CCC1(CC2)OCCCCO1`, the TGI with ACHN renal, with A498 renal, with SK-MEL-28 melanoma, with A549 NSCLC, in the assay with SF-295 CNS and in the assay on UACC-257 melanoma was above 100 µM in each case. The TGI in the assay on COLO 205 colon and in the assay with UACC-62 melanoma was above 100 µM in each case.

Take `CN(C(=O)C12C3C4C1C1C2C3C41C#N)C(C)(C)C` (stereo not drawn): the TGI in the assay on ACHN renal, in the assay with A498 renal, in the assay with SK-MEL-28 melanoma, in the assay with A549 NSCLC, in the assay on SF-295 CNS and in the assay on UACC-257 melanoma was above 100 µM each time. Also, the TGI in the assay on COLO 205 colon and in the assay on UACC-62 melanoma was above 100 µM throughout.
